Patent publication US20240317727A1 (Duke University, priority 2018, published 2024)
Like-named read-outs stand apart in the source and are kept apart here.

What was measured:
[1] = biological target: T1, recombinant HSF1 DNA-binding domain (DBD) (Homo sapiens, UniProt Q00613); test: Differential Scanning Fluorimetry (DSF), HSF1 DBD melting temperature; settings: Table 3; 5 μM HSF1 DBD, 25PM Compound; positive = stabilizes, negative = destabilizes HSF1
T1 sequence (Q00613 15-120): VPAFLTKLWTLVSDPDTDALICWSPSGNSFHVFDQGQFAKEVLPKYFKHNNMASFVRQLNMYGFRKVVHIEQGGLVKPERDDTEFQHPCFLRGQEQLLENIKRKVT

[2] = biological target: T2, purified recombinant human HSF1 (HSF1 DNA binding domain) (Homo sapiens, UniProt Q00613); test: Melting temperature of HSF1 DBD with HSF1 degrader compounds (Sypro orange); settings: read-out: ΔTm (° C.)
T2 sequence (Q00613 15-120): T1 sequence (Q00613 15-120)
Procedure: The melting temperature (ΔTm) for purified recombinant human HSF1 (HSF1 DNA binding domain) was determined in the presence of HSF1 degrader compounds shown in Table 5 and compared to the solvent DMSO. Sypro orange dye was added to the HSF1 DBD (5 micromolar final concentration) in buffer, mixed and distributed to wells in 384 well microtiter plates. HSF1 degrader compound (12.5 micromolar) or DMSO solvent was added to three replicate wells per compound concentration, mixed and plates loaded into a Quant Studio thermnocycler and run on a temperature gradient from 25° C. to 85° C. with increments of 0.5° C. steps. Melting curves were obtained and analyzed using the ThermnoFisher Shift Software 1.4 fitted with a Boltzmann equation to determine the change in melting temperature of the protein in the presence of DMSO as compared to compound. The difference in the melting temperature under these two conditions was assigned as the change in melting temperature of ΔTm.

[3] = test system: C4-2 prostate cancer cells; test: C4-2 cell proliferation, Cell Titre Glo; assay type: cell-based; settings: Homo sapiens, 48-hour period, 9-point dilution series, read-out: Cell Viability IC50
Procedure: Next, cell viability of C4-2 prostate cancer cells was determined. C4-2 prostate cancer cells were grown in RMPI-1640 (no L-glutamine, Gibco 21870076) supplemented with 10% fetal bovine […] (non-heat-inactivated, Cytiva Hyclone SH30071.03). […] A 9-point dilution series was used to assess the ability of each compound to inhibit the growth of C4-2 prostate cancer cells over a 48-hour period, as compared to negative control solvent, DMSO. Cell proliferation was measured by the Cell Titre Glo assay using 384 well microtiter plate reader to quantitate luminescence. The IC50 was determined from the values obtained.

[4] = 12.5 micromolar compound, 5 micromolar HSF1 DBD, compared to DMSO

SMILES | ΔTm at 25 µM [1] | ΔTm at 12.5 µM [2] | IC50 [3] | ΔTm at 12.5 µM [2, 4]
CN(C)CCc1cc(C#N)ccc1NC(=O)Nc1ccc(Cl)c(S(=O)(=O)C(F)(F)F)c1 [Compound 296, 1-(4-chloro-3-((trifluoromethyl)sulfonyl)phenyl)-3-(4-cyano-2-(2-(dimethylamino)ethyl)phenyl)urea] | -5.21 °C | 0.43 °C | > 10 µM | –
N#Cc1ccc(NC(=O)Nc2ccc(Cl)c(S(=O)(=O)C(F)(F)F)c2)c(OCCN2CCOCC2)c1 [Compound 299, 1-(4-chloro-3-((trifluoromethyl)sulfonyl)phenyl)-3-(4-cyano-2-(2-morpholinoethoxy)phenyl)urea] | 0.49 °C | – | > 10 µM | 0.2 °C
N#Cc1ccc(NC(=O)Nc2ccc(OCCN3CCOCC3)c(S(=O)(=O)C(F)(F)F)c2)cc1 [Compound 294, 1-(4-cyanophenyl)-3-(4-(2-morpholinoethoxy)-3-((trifluoromethyl)sulfonyl)phenyl)urea] | -9.02 °C | 2.24 °C | 9.82 µM | –
N#Cc1ccc(NC(=O)Nc2ccc(Cl)c(S(=O)(=O)C(F)(F)F)c2)cc1CN1CCOCC1 [Compound 285, 1-(4-chloro-3-((trifluoromethyl)sulfonyl)phenyl)-3-(4-cyano-3-(morpholinomethyl)phenyl)urea] | -7.52 °C | 1.23 °C | 4.81 µM | –
COc1cc(NC(=O)Nc2ccc3c(c2)S(=O)(=O)C=C3)ccc1C#N [Compound 249, 1-(4-cyano-3-methoxyphenyl)-3-(1,1-dioxidobenzo[b]thiophen-6-yl)urea] | – | – | 4.56 µM | 1.5 °C
N#Cc1ncc(NC(=O)Nc2ccc3c(c2)S(=O)(=O)C=C3)cn1 [Compound 269] | – | – | > 10 µM | 0.77 °C
COc1cc(NC(=O)Nc2ccc(Cl)c(S(=O)(=O)C(F)(F)F)c2)ccc1C#N [Compound 248, 1-(4-chloro-3-((trifluoromethyl)sulfonyl)phenyl)-3-(4-cyano-3-methoxyphenyl)urea] | – | – | 3.24 µM | 2.95 °C
CN(C)CCc1cc(NC(=O)Nc2ccc3c(c2)S(=O)(=O)C=C3)ccc1C#N [Compound 290, 1-(4-cyano-3-(2-(dimethylamino)ethyl)phenyl)-3-(1,1-dioxidobenzo[b]thiophen-6-yl)urea] | 3.28 °C | -0.3 °C | > 10 µM | –
COc1cc(NC(=O)Nc2ccc3nsnc3c2)ccc1C#N [Compound 250, 1-(benzo[c][1,2,5]thiadiazol-5-yl)-3-(4-cyano-3-methoxyphenyl)urea] | – | – | > 10 µM | 1.3 °C
N#Cc1ccc(NC(=O)Nc2ccc(CN3CCOCC3)c(S(=O)(=O)C(F)(F)F)c2)cc1 [Compound 288, 1-(4-cyanophenyl)-3-(4-(morpholinomethyl)-3-((trifluoromethyl)sulfonyl)phenyl)urea] | 3.27 °C | 2.24 °C | 8.9 µM | –
N#CC1CCC(NC(=O)Nc2ccc(Cl)c(C(F)(F)F)c2)CC1 (stereo not shown) [Compound 300, 1-(4-chloro-3-(trifluoromethyl)phenyl)-3-(4-cyanocyclohexyl)urea] | – | -0.73 °C | > 10 µM | –
N#Cc1ccc(NC(=O)Nc2ccc(F)cc2)cc1 [Compound 255, 1-(4-cyanophenyl)-3-(4-fluorophenyl)urea] | – | – | > 10 µM | 2.22 °C
N#Cc1cccc(NC(=O)Nc2ccc(Cl)c([N+](=O)[O-])c2)c1 [Compound 238, 1-(4-chloro-3-nitrophenyl)-3-(3-cyanophenyl)urea] | – | – | 3.1 µM | 3.49 °C
N#Cc1ccc(NC(=O)Nc2ccc(Cl)c(S(=O)(=O)C(F)(F)F)c2)cc1CCN1CCOCC1 [Compound 286, 1-(4-chloro-3-((trifluoromethyl)sulfonyl)phenyl)-3-(4-cyano-3-(2-morpholinoethyl)phenyl)urea] | -6.23 °C | 1.64 °C | 5.95 µM | –
N#Cc1ccc(NC(=O)Nc2ccc3occc3c2)cc1 [Compound 246, 1-(benzofuran-5-yl)-3-(4-cyanophenyl)urea] | – | – | > 10 µM | 3.23 °C
N#Cc1ccc(NC(=O)Nc2ccc(Cl)c(S(=O)(=O)C(F)(F)F)c2)c(CCN2CCOCC2)c1 [Compound 298, 1-(4-chloro-3-((trifluoromethyl)sulfonyl)phenyl)-3-(4-cyano-2-(2-morpholinoethyl)phenyl)urea] | 2.28 °C | – | > 10 µM | 1 °C
N#Cc1ccc(NC(=O)Nc2ccc3c(c2)S(=O)(=O)C=C3)cc1CCN1CCOCC1 [Compound 292, 1-(4-cyano-3-(2-morpholinoethyl)phenyl)-3-(1,1-dioxidobenzo[b]thiophen-6-yl)urea] | 3.33 °C | -0.76 °C | > 10 µM | –

SMILES | ΔTm at 25 µM [1] | ΔTm at 12.5 µM [2] | IC50 [3] | ΔTm at 12.5 µM [2, 4]
CN(C)CCc1cc(NC(=O)Nc2ccc(Cl)c(S(=O)(=O)C(F)(F)F)c2)ccc1C#N [Compound 284, 1-(4-chloro-3-((trifluoromethyl)sulfonyl)phenyl)-3-(4-cyano-3-(2-(dimethylamino)ethyl)phenyl)urea] | – | 0.62 °C | > 10 µM | –
N#Cc1ccc(NC(=O)Nc2ccc(Cl)c([N+](=O)[O-])c2)cc1 [Compound 239, 1-(4-chloro-3-nitrophenyl)-3-(4-cyanophenyl)urea] | – | – | 2.94 µM | 3.13 °C
N#Cc1ccc(NC(=O)Nc2ccc(Cl)c([N+](=O)[O-])c2)cc1C(F)(F)F [Compound 240, 1-(4-chloro-3-nitrophenyl)-3-(4-cyano-3-(trifluoromethyl)phenyl)urea] | – | 3.01 °C | 0.563 µM | –
N#Cc1cccc(NC(=O)Nc2ccc3c(c2)S(=O)(=O)C=C3)n1 [Compound 267, 1-(6-cyanopyridin-2-yl)-3-(1,1-dioxidobenzo[b]thiophen-6-yl)urea] | – | – | > 10 µM | -0.19 °C
N#Cc1cnc(NC(=O)Nc2ccc3c(c2)S(=O)(=O)C=C3)cn1 [Compound 268, 1-(5-cyanopyrazin-2-yl)-3-(1,1-dioxidobenzo[b]thiophen-6-yl)urea] | – | – | 7.79 µM | 0.39 °C
N#Cc1ccc(NC(=O)Nc2ccc3c(c2)C(=O)CC3)cc1 [Compound 283, 1-(4-cyanophenyl)-3-(3-oxo-2,3-dihydro-1H-inden-5-yl)urea] | – | – | > 10 µM | 0.1 °C
CC(C)(C)c1cc(NC(=O)Nc2ccc3c(c2)S(=O)(=O)C=C3)ccc1C#N [Compound 264, 1-(3-(tert-butyl)-4-cyanophenyl)-3-(1,1-dioxidobenzo[b]thiophen-6-yl)urea] | – | – | 2.65 µM | 1.27 °C
N#Cc1ccc(NC(=O)Nc2ccc(Cl)c(S(=O)(=O)C(F)(F)F)c2)cc1OCCN1CCOCC1 [Compound 293, 1-(4-chloro-3-((trifluoromethyl)sulfonyl)phenyl)-3-(4-cyano-3-(2-morpholinoethoxy)phenyl)urea] | -4.19 °C | 1.13 °C | 6.05 µM | –
N#Cc1ccc(NC(=O)Nc2ccc(F)cc2)cc1C(F)(F)F [Compound 254, 1-(4-cyano-3-(trifluoromethyl)phenyl)-3-(4-fluorophenyl)urea] | – | 1.84 °C | 4.02 µM | –
N#Cc1ccc(NC(=O)Nc2ccc3c(c2)C=CS3(=O)=O)o1 [Compound 271, 1-(5-cyanofuran-2-yl)-3-(1,1-dioxidobenzo[b]thiophen-5-yl)urea] | – | – | > 10 µM | 0.02 °C
Cc1cc(NC(=O)Nc2ccc3c(c2)S(=O)(=O)C=C3)ccc1C#N [Compound 261, 1-(4-cyano-3-methylphenyl)-3-(1,1-dioxidobenzo[b]thiophen-6-yl)urea] | – | – | 2.29 µM | 1.06 °C
N#Cc1ccc(NC(=O)Nc2ccc3c(c2)S(=O)(=O)C=C3)cc1OCCN1CCOCC1 [Compound 295, 1-(4-cyano-3-(2-morpholinoethoxy)phenyl)-3-(1,1-dioxidobenzo[b]thiophen-6-yl)urea] | – | -0.03 °C | > 10 µM | –
N#Cc1ccc(NC(=O)Nc2ccc3c(c2)S(=O)(=O)c2ccccc2-3)cc1 [Compound 277, 1-(4-cyanophenyl)-3-(5,5-dioxidodibenzo[b,d]thiophen-3-yl)urea] | – | – | 5.65 µM | -2.3 °C
COc1cc(NC(=O)Nc2ccc3occc3c2)ccc1C#N [Compound 251] | – | – | > 10 µM | 2.06 °C
COc1cc(NC(=O)Nc2ccc(Cl)c([N+](=O)[O-])c2)ccc1C#N [Compound 241, 1-(4-chloro-3-nitrophenyl)-3-(4-cyano-3-methoxyphenyl)urea] | – | – | 5.57 µM | 2.63 °C
N#Cc1ccc(NC(=O)Nc2ccc(C#N)c(C(F)(F)F)c2)cc1C(F)(F)F [Compound 252, 1,3-bis(4-cyano-3-(trifluoromethyl)phenyl)urea] | – | 1.33 °C | 2.08 µM | –
